Measured values: ChEMBL document CHEMBL4190380, “Preliminary in vitro and in vivo investigation of a potent platelet derived growth factor receptor (PDGFR) family kinase inhibitor” (Bioorg Med Chem Lett, 2018)
The source made the active and inactive calls. The rule behind the calls is not given here.

How the values were obtained:
[1] = system: Mast/stem cell growth factor receptor Kit (Mus musculus), P05532 [D814Y]; assay: Inhibition of KIT D814Y mutant in mouse P815 cells assessed as reduction in STAT3 Tyr705 phosphorylation at 500 nM to 5 uM by Western blot method; type: cell-based
Mus musculus [2] = assay: In-vivo suppression of PDGFR signalling in C57BL/6 mouse assessed as retardation of hair re-growth at 75 mg/kg, ip administered once daily for 17 days by photography; type: functional, organism-based
P815 [3] = assay: Toxicity in mouse P815 cells expressing KIT D814Y mutant assessed as reduction in total STAT3 protein level at 5 uM by Western blot method; type: cell-based; settings: p815, 5 µM
[4] = molecular target: Platelet-derived growth factor receptor beta (Homo sapiens, UniProt P09619); assay: Binding affinity to PDGFRbeta (unknown origin)
Mus musculus [5] = assay: Toxicity in C57BL/6 mouse assessed as induction of mouse mortality at 400 mg/kg, ip for 17 days measured on day 0; type: organism-based; settings: in vivo, 408 h
Mus musculus [6] = assay: In-vivo suppression of KIT signalling in C57BL/6 mouse assessed as hair depigmentation at 75 mg/kg, ip administered once daily for 17 days by photography; type: functional, organism-based
Mus musculus [7] = assay: Toxicity in C57BL/6 mouse assessed as body weight loss at 75 mg/kg, ip for 17 days; type: organism-based; settings: in vivo, 408 h
P815 [8] = assay: Cytotoxicity in mouse P815 cells expressing KIT D814Y mutant assessed as reduction in cell viability incubated for 48 hrs by MTT assay; type: functional, cell-based; settings: P815, 48 h
P815 [9] = assay: Induction of apoptosis in mouse P815 cells expressing KIT D814Y mutant assessed as reduction in pro-caspase-3 protein level at 500 nM to 5 uM by Western blot method; type: functional, cell-based

Mast/stem cell growth factor receptor Kit (Mus musculus), P05532 [D814Y], sequence (P05532 with tags, fused parts or gaps D814Y): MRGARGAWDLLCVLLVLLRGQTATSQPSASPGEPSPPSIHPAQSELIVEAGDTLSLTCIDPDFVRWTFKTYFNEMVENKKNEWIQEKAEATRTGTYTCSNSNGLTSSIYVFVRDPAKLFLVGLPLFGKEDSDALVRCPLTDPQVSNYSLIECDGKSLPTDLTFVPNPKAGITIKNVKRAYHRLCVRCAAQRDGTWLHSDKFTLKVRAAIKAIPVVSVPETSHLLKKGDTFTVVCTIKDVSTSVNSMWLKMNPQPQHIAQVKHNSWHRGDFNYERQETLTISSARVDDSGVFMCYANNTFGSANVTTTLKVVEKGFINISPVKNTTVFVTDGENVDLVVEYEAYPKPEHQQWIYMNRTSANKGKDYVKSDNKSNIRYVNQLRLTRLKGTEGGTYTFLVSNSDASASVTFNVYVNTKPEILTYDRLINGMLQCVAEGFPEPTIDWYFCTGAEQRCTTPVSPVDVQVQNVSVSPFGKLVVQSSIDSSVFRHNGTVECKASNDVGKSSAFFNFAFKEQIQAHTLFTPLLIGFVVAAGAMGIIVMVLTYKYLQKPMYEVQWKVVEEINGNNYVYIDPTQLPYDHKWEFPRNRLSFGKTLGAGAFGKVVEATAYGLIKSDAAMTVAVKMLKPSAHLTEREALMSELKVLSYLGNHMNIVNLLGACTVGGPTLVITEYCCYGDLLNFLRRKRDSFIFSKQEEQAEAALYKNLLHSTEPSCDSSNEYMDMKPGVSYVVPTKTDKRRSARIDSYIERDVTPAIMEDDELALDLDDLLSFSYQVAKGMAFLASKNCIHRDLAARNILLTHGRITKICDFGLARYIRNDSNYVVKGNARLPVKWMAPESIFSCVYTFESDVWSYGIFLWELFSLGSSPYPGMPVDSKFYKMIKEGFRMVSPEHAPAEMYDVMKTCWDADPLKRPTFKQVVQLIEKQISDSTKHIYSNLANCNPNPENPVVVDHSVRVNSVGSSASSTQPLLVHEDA
Platelet-derived growth factor receptor beta, sequence (P09619 whole entry): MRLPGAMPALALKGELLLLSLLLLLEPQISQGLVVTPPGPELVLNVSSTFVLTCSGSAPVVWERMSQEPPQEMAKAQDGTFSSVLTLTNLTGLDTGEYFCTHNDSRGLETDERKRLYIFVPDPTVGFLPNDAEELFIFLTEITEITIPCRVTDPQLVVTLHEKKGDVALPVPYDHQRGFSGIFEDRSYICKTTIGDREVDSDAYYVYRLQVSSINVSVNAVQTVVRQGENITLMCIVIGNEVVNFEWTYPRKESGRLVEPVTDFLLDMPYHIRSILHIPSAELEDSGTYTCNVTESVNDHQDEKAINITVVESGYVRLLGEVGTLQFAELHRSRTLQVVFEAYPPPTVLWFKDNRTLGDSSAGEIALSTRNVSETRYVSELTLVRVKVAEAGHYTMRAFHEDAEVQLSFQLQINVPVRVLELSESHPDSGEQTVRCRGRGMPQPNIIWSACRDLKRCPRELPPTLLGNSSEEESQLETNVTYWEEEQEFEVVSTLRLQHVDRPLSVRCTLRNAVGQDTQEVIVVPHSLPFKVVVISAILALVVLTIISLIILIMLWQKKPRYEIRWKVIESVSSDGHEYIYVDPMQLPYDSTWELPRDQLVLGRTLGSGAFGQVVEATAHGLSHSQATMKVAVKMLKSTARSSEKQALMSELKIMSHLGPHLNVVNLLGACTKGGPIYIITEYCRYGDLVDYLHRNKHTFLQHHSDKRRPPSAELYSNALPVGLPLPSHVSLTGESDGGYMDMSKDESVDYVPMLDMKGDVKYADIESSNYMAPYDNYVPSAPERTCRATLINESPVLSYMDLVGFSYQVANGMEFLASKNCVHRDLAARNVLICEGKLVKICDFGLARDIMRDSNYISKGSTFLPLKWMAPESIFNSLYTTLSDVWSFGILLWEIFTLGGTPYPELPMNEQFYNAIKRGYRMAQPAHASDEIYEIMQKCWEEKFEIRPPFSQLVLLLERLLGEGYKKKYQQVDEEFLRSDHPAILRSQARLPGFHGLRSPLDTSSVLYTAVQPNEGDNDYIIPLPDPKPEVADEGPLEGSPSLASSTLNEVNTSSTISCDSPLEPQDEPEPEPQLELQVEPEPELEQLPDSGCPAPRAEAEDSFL

Row | SMILES | inhibition [1] | Activity (Mus musculus [2]) | Activity (P815 [3]) | Kd [4] | Activity (Mus musculus [5]) | Activity (Mus musculus [6]) | Activity (Mus musculus [7]) | IC50 (P815 [8]) | Activity (P815 [9])
1 | COCCOc1cc2ncnc(N3CCN(c4ncc(Cc5ccccc5)cn4)CC3)c2cc1OCCOC | Active | Active | Toxic | 8 nM | Toxic | inactive | 10% | 182 nM | Dose-dependent effect
2 | COc1cc2c(N3CCN(C(=O)Nc4ccc(OC(C)C)cc4)CC3)ncnc2cc1OCCCN1CCCCC1 [TANDUTINIB] | – | – | – | – | – | – | – | 600 nM | –
